Results published in the NIST ThermoML archive (doi:10.1021/je060271a).

Conditions: 343.15 K, Liquid, Vibrating tube method

CCCCCCCC(=O)OCC(COC(=O)CCCCCCC)(COC(=O)CCCCCCC)COC(=O)CCCCCCC [pentaerythritol tetraoctanoate]
Conditions	mass density [kg/m3]
14038 kPa	936.2
14078 kPa	936.3
14099 kPa	936.2
14121 kPa	936.1
14146 kPa	936.2
14168 kPa	936.1
14194 kPa	936.3
14216 kPa	936.3
14238 kPa	936.2
14260 kPa	936.2
14286 kPa	936.3
14308 kPa	936.4
14330 kPa	936.4
14357 kPa	936.2
14379 kPa	936.4
14401 kPa	936.3
14428 kPa	936.3
14450 kPa	936.4
14473 kPa	936.4
14500 kPa	936.4
14523 kPa	936.4
14546 kPa	936.5
14570 kPa	936.6
14594 kPa	936.4
14621 kPa	936.6
14644 kPa	936.5
14667 kPa	936.4
14694 kPa	936.5
14718 kPa	936.6
14741 kPa	936.7
14765 kPa	936.5
14793 kPa	936.6
14817 kPa	936.6
14845 kPa	936.6
14870 kPa	936.7
14894 kPa	936.6
14918 kPa	936.8
14947 kPa	936.7
14971 kPa	936.8
14995 kPa	936.7
15024 kPa	936.7
15049 kPa	936.8
15078 kPa	936.8
15103 kPa	936.8
15127 kPa	936.8
15152 kPa	936.9
15183 kPa	936.8
15208 kPa	936.8
15233 kPa	936.8
15263 kPa	936.9
15288 kPa	937
15314 kPa	937
15344 kPa	937
15370 kPa	937
15396 kPa	937.1
15426 kPa	937.1
15452 kPa	937
15478 kPa	937
15508 kPa	937
15536 kPa	937
15563 kPa	937.1
15589 kPa	937.3
15616 kPa	937.2
15647 kPa	937.1
15673 kPa	937.2
15705 kPa	937.3
15732 kPa	937.3
15759 kPa	937.3
15791 kPa	937.2
15818 kPa	937.3
15846 kPa	937.3
15879 kPa	937.4
15908 kPa	937.4
15936 kPa	937.2
15964 kPa	937.3
15992 kPa	937.3
16026 kPa	937.4
16054 kPa	937.5
16083 kPa	937.4
16116 kPa	937.5
16144 kPa	937.5
16173 kPa	937.5
16207 kPa	937.5
16236 kPa	937.5
16265 kPa	937.7
16300 kPa	937.7
16329 kPa	937.6
16358 kPa	937.7
16387 kPa	937.6
16423 kPa	937.7
16453 kPa	937.7
16483 kPa	937.8
16518 kPa	937.7
16548 kPa	937.6
16578 kPa	937.8
16609 kPa	937.7
16645 kPa	937.8
16676 kPa	937.9
16707 kPa	937.9
16738 kPa	937.8
16775 kPa	937.8
16806 kPa	937.9
16843 kPa	938.1
16904 kPa	938
16942 kPa	938
16974 kPa	938.1
17005 kPa	938
17037 kPa	938.1
17075 kPa	938.1
17107 kPa	938.1
17146 kPa	938.2
17354 kPa	938.2
17387 kPa	938.2
17421 kPa	938.3
17460 kPa	938.4
17494 kPa	938.4
17528 kPa	938.4
17569 kPa	938.5
17604 kPa	938.5
17638 kPa	938.4
17678 kPa	938.5
17713 kPa	938.4
17748 kPa	938.5
17790 kPa	938.6
17825 kPa	938.6
17861 kPa	938.6
17904 kPa	938.7
17940 kPa	938.7
17977 kPa	938.8
18022 kPa	938.8
18054 kPa	938.8
18084 kPa	938.8
18119 kPa	938.8
18149 kPa	938.8
18179 kPa	938.8
18210 kPa	938.9
18247 kPa	938.9
18279 kPa	938.9
18312 kPa	938.9
18349 kPa	939
18372 kPa	938.9
18393 kPa	939.1
18411 kPa	939.1
18430 kPa	939
18448 kPa	939
18465 kPa	939.1
18482 kPa	939.1
18503 kPa	939.2
